In brackets after ≈: the same amount, converted by molar mass. Like-named read-outs stand apart in the source and are kept apart here. Blank lines part the entries; values can stand above or below the compound they belong to.
How the values were obtained:
B16 melanocyte cells [1] = assay: B16 cell melanogenesis inhibition assay; type: cell-based
B16 melanocyte cells [2] = system: B16 melanocyte cells
Method: Cytotoxicity activities to determine cell viability were obtained as follows. B16 melanocyte cells were plated in a 24 well-plate one day before the actual assay. Fresh DMEM (with phenol red) containing 10% FBS was added to dilute the cells to an appropriate density, 0.025×10^6 cells for a 24 well-plate. 1 ml of the DMEM with 10% FBS was added to each well. […] The well-plate with treated cells were then left in the incubator at 37° C., 5% CO2 for approximately 16 hours overnight. The media was removed and 1 ml of PBS solution was added into each well to wash and remove the colour of the phenol red in the DMEM. Then, 1 ml of fresh PBS was added into each individual well. 15 μl of the prepared Resazurin stock solution was added (8 μg/ml) into each well containing the compounds. The Resazurin stock solution was prepared by adding 800 μg of Resazurin sodium salt in 10 ml of PBS (pH 7.4) to make a concentration of 80 μg/ml, which was further diluted by adding 0.1 ml of the 80 μg/ml solution to 0.9 ml of PBS to make 8 μg/ml of stock solution. The well-plates were incubated at 37° C. for 2 hours. The plate was immediately read, after 2 hours, using a BioTek Synergy HTX multi-mode reader at an emission and excitation wavelength of 600 nm and 528 nm respectively, with a gain of 35. The results were automatically recorded in an excel spreadsheet.

[3] = system: arm skin of Southeast Asian women; conditions: in vivo
Description: The cream base used for blending the active ingredients contained the ingredients as follows: Aqua, Butyrospermum parkii, caprylic/capric triglyceride, C12-15 alkyl benzoate, cetearyl isononanoate, cyclomethicone, butylene glycol, hydroxyethyl acrylate, sodium dimethyl taurate copolymer, Aloe barbadensis leaf juice.

Pseudomonas aeruginosa = assay: Antimicrobial activity, resistance of cream to microbial contamination; type: cell-based; conditions: tested individually at 0.05%
[4] = Viscosity measurement of creams; type: physicochemical; conditions: 0.5 wt % in base cream of 25,000 mPa·s
Method: Rheological properties of the creams with different cosmetic compositions were evaluated based on viscosity measurements. The individually tested samples were dissolved in a base cream (control) with a viscosity of 25,000 mPa·s. The cream base used for blending the active ingredients contained the ingredients as follows: Aqua, Butyrospermum parkii, caprylic/capric triglyceride, C12-15 alkyl benzoate, cetearyl isononanoate, cyclomethicone, butylene glycol, hydroxyethyl acrylate, sodium dimethyl taurate copolymer, Aloe barbadensis leaf juice. The cream base was white in colour, with a pH ranges between 4.5 and 5.5.

[5] = system: arm skin of Southeast Asian women; assay: Subject self-assessment questionnaire and preference in the skin lightening study (Example 1); type: in vivo, human; conditions: by day 14 of the trial
Description: Table V illustrates the ranking of the various compositions from best to worst based on user satisfaction measurements. The questionnaire was formulated to include the questions such as: 1) what were your first impressions after application of the various compositions? 2) How quickly do you expect to see a lightening effect? 3) Are you satisfied with the quality of skin lightening achieved? 4) How many days after the first application of the various compositions did you observe a lightening effect? 5) are you satisfied with the quality of skin lightening achieved? 6) How many days after the first application of the test product did you observe a lightening effect?

Indian and Chinese skins = assay: Skin tone (a*, b*) and general skin quality observation (Examples 5 and 6); type: in vivo, human; conditions: Chinese skin and especially Indian skin
Method: […]. The a* (rosy-red tone) and b* (yellow tone) components of the skin tone were monitored.
Over the 28-day period, the a* (rosy-red tone) component of Indian skin increased, and the b* (yellow tone) component of Indian and Chinese skins decreased. […] Before starting the study, all subjects' melanin index, L*a*b* and ITA value were measured at the tested site using Mexameter MX18 and Courage+Khazaka (CK) Colorimeter CL 400. Photos and instrument measurements were taken at the start of the testing (Day 0), during the testing (D2, D5, D7, D9, D12) and after the testing (D14, D21 and D28). […] Each subject applied 5 products on the left arm. Subjects wore an arm sleeve over part of the right arm for the occluded site, so as to provide 2 negative controls, one occluded from light and UV-radiation (right arm) and one covered under fabric (left arm) so as to understand the effect of melanogenesis even when no light is passing through. The tested areas were evaluated on their skin melanin index, L*a*b* and ITA after D2, D5, D7, D9, D12, D14, D21 and D28 of application using Mexameter MX 18 and CK Colorimeter CL400.
As part of the same experiment above, general skin quality effects were also observed.

[6] = B16 cultured melanocyte cells, 3 days incubation, melanin OD at 480 nm
[7] = Melanocyte, 72 h, B16 cultured melanocyte cells, 3 days incubation, melanin OD at 480 nm; read-out: IC50, melanogenesis inhibition
[8] = Melanocyte, 72 h; read-out: IC50, melanogenesis inhibition

Compound: CC1=CC(=O)[N-]S(=O)(=O)O1.[K+] [Acesulphame K (ASK), Acesulphame K (Potassium Acesulphame)]
IC50 (B16 melanocyte cells [1]; Melanocyte, 72 h, read-out: IC50, melanogenesis inhibition): 58 µg/mL

IC50, melanogenesis inhibition (B16 melanocyte cells [1]; [6]): 262 µg/mL (≈ 1450 µM)
Compound: CC(=O)Oc1ccccc1C(=O)O [Acetylsalicylic Acid, Acetyl Salicylic Acid]

IC50, melanogenesis inhibition (B16 melanocyte cells [1]; [6]): 77 µg/mL (≈ 496 µM) | IC50 (B16 melanocyte cells [1]; [7]): 59 to 262 µg/mL (≈ 380 to 1690 µM)
Compound: O=C(O)c1cc(O)[nH]c(=O)c1 [Citrazinic Acid, Citrazinic acid]

IC50 (B16 melanocyte cells [1]; [7]): 73 µg/mL (≈ 414 µM)
Compound: O=C1O[C@H]([C@H](O)CO)C(O)=C1O [Erythorbic Acid]

IC50, melanogenesis inhibition (B16 melanocyte cells [1]; [6]): 59 µg/mL (≈ 421 µM) | IC50 (B16 melanocyte cells [1]; [7]): 59 to 262 µg/mL (≈ 421 to 1870 µM)
Compound: CCc1occc(=O)c1O [Ethyl Maltol]
concentrations resulting in cell toxicity (B16 melanocyte cells [2]; mouse): greater than 100 μM

IC50 (B16 melanocyte cells [1]; [8]): 56 µg/mL (≈ 371 µM)
Compound: Nc1nc2[nH]cnc2c(=O)[nH]1 [Guanine]

IC50 (B16 melanocyte cells [1]; [7]): 70 µg/mL
Compound: Nc1nc2c(ncn2[C@@H]2O[C@H](COP(=O)(O)O)[C@@H](O)[C@H]2O)c(=O)[nH]1 [Guanosine Monophosphate, Guanosine Mono- phosphate]

IC50 (B16 melanocyte cells [1]; [7]): 70 µg/mL (≈ 514 µM)
Compound: O=c1[nH]cnc2[nH]cnc12 [Hypoxanthine]

Compound: O=c1[nH]c2ccccc2c(=O)o1 [Isatoic Anhydride]
IC50 (B16 melanocyte cells [1]; [8]): 132 µg/mL (≈ 809 µM)

IC50 (B16 melanocyte cells [1]; [7]): 51 µg/mL (≈ 359 µM)
Compound: O=c1cc(CO)occ1O [Kojic acid (Standard), Kojic acid, reference compound]

IC50 (B16 melanocyte cells [1]; [7]): 65 µg/mL (≈ 515 µM)
Compound: Cc1occc(=O)c1O [Maltol, 3-hydroxy-2-methyl-4H-pyran-4-one]
cytotoxic activities on intact human skin [3]: no real cytotoxic activities | cytotoxic activities on B16 cells (B16 melanocyte cells [2]): no real cytotoxic activities | inhibition of the growth of P. aeruginosa (Pseudomonas aeruginosa): completely inhibited

IC50 (B16 melanocyte cells [1]; [7]): 89 µg/mL (≈ 605 µM)
Compound: O=C1NC(=O)c2ccccc21 [Phthalimide]

Compound: O=C1NS(=O)(=O)c2ccccc21 [Saccharin, 2H-1lamda 6,2-benzothiazol-1,1,3-trione]
cytotoxic activities on B16 cells (B16 melanocyte cells [2]): no real cytotoxic activities

IC50 (B16 melanocyte cells [1]; [7]): 37 µg/mL (≈ 205 µM)
Compound: Cn1cnc2c1c(=O)[nH]c(=O)n2C [Theobromine]

IC50 (B16 melanocyte cells [1]; [7]): 143 µg/mL (≈ 1280 µM)
Compound: O=c1cc[nH]c(=O)[nH]1 [Uracil]

Compound: O=C1O[C@H]([C@@H](O)CO)C(O)=C1O[C@H]1O[C@H](CO)[C@@H](O)[C@H](O)[C@H]1O [ascorbic acid-2-glucoside (AA2G), ascorbic acid-2-glucoside]
viscosity of the cream [4]: 26,000 mPa·s

Compound: NC(=O)c1cccnc1 [niacinamide]
subjects who observed and reported lightening of their skin [5]: 82% | effects on a* and b* skin tone compared with the maltol/saccharin cream (Indian and Chinese skins): diametrically opposite effects

Compound: Dehydroacetic Acid [Dehydroacetic Acid (DHAA)]
IC50, melanogenesis inhibition (B16 melanocyte cells [1]): 73 µg/mL

From patent US11123279B2, “Cosmetic composition and the use thereof for regulating skin quality” (priority 2016, dated 2021)
